Reference: US4990508A, “Pyridone carboxylic acid derivatives and salts thereof, process for producing the same and antibacterial agents comprising the same” (Toyama Chemical Co., Ltd., priority 1988, dated 1991)
Values after ≈ are worked out from the molar mass of the structure shown. Counter-ions that a name gives are not always drawn. Like-named read-outs stand apart in the source and are kept apart here.

Assays:
P. aeruginosa GN-918* = experiment: MIC, agar dilution, standard method of Japan Society of Chemotherapy; assay type: cell-based; conditions: Pseudomonas aeruginosa
Method: (§1) According to the standard method of Japan Society of Chemotherapy [CHEMOTHERAPY, 29 (1), 76-79 (1981)], a bacteria solution obtained by culturing in Heart Infusion broth (manufactured by Eiken Kagaku) at 37° C. for 20 hours was inoculated onto a Heart Infusion agar containing a drug and cultured at 37° C. for 20 hours, after which the growth of the bacteria was observed, to determine the minimum concentration at which the growth of the bacteria was inhibited as MIC (μg/ml). The amount of the inoculated bacteria was 10^4 cells/plate (10^6 cells/ml).
(§2) The asterisk in Table 1 means β-Lactamase-producing bacteria.

K. pneumoniae Y-4* = experiment: as above; assay type: cell-based; conditions: Klebsiella pneumoniae
Method: as §1, §2

S. marcescens W-134 = experiment: as above; assay type: cell-based; conditions: Serratia marcescens, W134, Heart Infusion agar, 37° C., 20 hours, 10^4 cells/plate (10^6 cells/ml)
Method: as §1

C. freundii N-7 = experiment: as above; assay type: cell-based; conditions: Citrobacter freundii
Method: as §1

P. mirabilis T-111 = experiment: as above; assay type: cell-based; conditions: Proteus mirabilis, T111, Heart Infusion agar, 37° C., 20 hours, 10^4 cells/plate (10^6 cells/ml)
Method: as §1

M. morganii T-216 = experiment: as above; assay type: cell-based; conditions: Morganella morganii, T216, Heart Infusion agar, 37° C., 20 hours, 10^4 cells/plate (10^6 cells/ml)
Method: as §1

E. coli TK-111 = experiment: as above; assay type: cell-based; conditions: Escherichia coli, TK111, Heart Infusion agar, 37° C., 20 hours, 10^4 cells/plate (10^6 cells/ml)
Method: as §1

E. coli NIHJ = experiment: as above; assay type: cell-based; conditions: Escherichia coli, Heart Infusion agar, 37° C., 20 hours, 10^4 cells/plate (10^6 cells/ml)
Method: as §1

[1] = Acute toxicity, intravenous, mice; conditions: mouse, in vivo, ICR strain male mice, 22±1 g, in 0.1N aqueous sodium hydroxide, read-out: 50% lethal dosage (LD50)
Method: A test compound was intravenously administered to a group of three ICR strain male mice each weighing 22±1 g to investigate the acute toxicity.
The test compound was dissolved in a 0.1N aqueous sodium hydroxide solution, and the resulting solution was applied.

[2] = GN918, P. aeruginosa GN-918, β-Lactamase-producing, Heart Infusion agar, 37° C., 20 hours, 10^4 cells/plate (10^6 cells/ml), read-out: MIC
[3] = K. pneumoniae Y-4, β-Lactamase-producing, Heart Infusion agar, 37° C., 20 hours, 10^4 cells/plate (10^6 cells/ml), read-out: MIC
[4] = N7, C. freundii N-7, Heart Infusion agar, 37° C., 20 hours, 10^4 cells/plate (10^6 cells/ml), read-out: MIC

| MIC (K. pneumoniae Y-4*; [3]) | SMILES | MIC (P. aeruginosa GN-918*; [2]) | MIC (S. marcescens W-134) | MIC (C. freundii N-7; [4]) | MIC (P. mirabilis T-111) | MIC (M. morganii T-216) | MIC (E. coli TK-111) | MIC (E. coli NIHJ) | MIC (K. pneumoniae Y-4*; 20 h) | MIC (C. freundii N-7; N7, 20 h) | LD50 [1] | MIC (P. aeruginosa GN-918*; GN918, 20 h) |
| --- | --- | --- | --- | --- | --- | --- | --- | --- | --- | --- | --- | --- |
| 0.2 µg/mL | CC1CC1(N)c1c(F)cc2c(=O)c(C(=O)O)cn3c2c1OC[C@@H]3C.Cl (stereo partly drawn) [Test Compound 10, (S)-10-(1-amino-2-methylcyclopropyl)-9-fluoro-3-methyl-7-oxo-2,3-dihydro-7H-pyrido[1,2,3-de][1,4]-benzoxazine-6-carboxylic acid hydrochloride] | 0.2 µg/mL | 0.1 µg/mL | ≤ 0.05 µg/mL | 0.2 µg/mL | ≤ 0.05 µg/mL | ≤ 0.05 µg/mL | ≤ 0.05 µg/mL |  |  |  |  |
|  | CC1COc2c(C3(N)CC3)c(F)c(O)c3c(=O)c(C(=O)O)cn1c23.Cl (stereo not shown) [Test Compound 4, 10-(1-Aminocyclopropyl)-9-fluoro-8-hydroxy-3-methyl-7-oxo-2,3-dihydro-7H-pyrido[1,2,3-de][1,4]-benzoxazine-6-carboxylic acid hydrochloride] | 0.78 µg/mL | 0.2 µg/mL |  | 0.2 µg/mL | ≤ 0.05 µg/mL | ≤ 0.05 µg/mL | ≤ 0.05 µg/mL | 0.39 µg/mL | 0.39 µg/mL |  |  |
|  | CC1COc2c(C3(N)CC3)c(F)c(F)c3c(=O)c(C(=O)O)cn1c23.Cl (stereo not shown) [Test Compound 3, 10-(1-Aminocyclopropyl)-8,9-difluoro-3-methyl-7-oxo-2,3-dihydro-7H-pyrido[1,2,3-de][1,4]benzoxazine-6-carboxylic acid hydrochloride] | 0.78 µg/mL | 0.2 µg/mL | 0.2 µg/mL | 0.2 µg/mL | ≤ 0.05 µg/mL | ≤ 0.05 µg/mL | ≤ 0.05 µg/mL | 0.39 µg/mL |  |  |  |
| 0.2 µg/mL | Cl.NC1(c2c(F)cc3c(=O)c(C(=O)O)cn4c3c2OCC4CF)CC1 (stereo not shown) [Test Compound 6, 10-(1-Aminocyclopropyl)-9-fluoro-3-fluoromethyl-7-oxo-2,3-dihydro-7H-pyrido[1,2,3-de][1,4]benzoxazine-6-carboxylic acid hydrochloride] | 0.2 µg/mL | 0.1 µg/mL | 0.1 µg/mL | 0.1 µg/mL | ≤ 0.05 µg/mL | ≤ 0.05 µg/mL | ≤ 0.05 µg/mL |  |  |  |  |
|  | CC1COc2c(C3(N)CC3)c(F)c(N)c3c(=O)c(C(=O)O)cn1c23.Cl (stereo not shown) [Test Compound 2, 8-Amino-10-(1-aminocyclopropyl)-9-fluoro-3-methyl-7-oxo-2,3-dihydro-7H-pyrido[1,2,3-de][1,4]-benzoxazine-6-carboxylic acid hydrochloride] | 0.78 µg/mL | 0.2 µg/mL | 0.1 µg/mL | 0.39 µg/mL | 0.1 µg/mL | ≤ 0.05 µg/mL | ≤ 0.05 µg/mL | 0.39 µg/mL |  |  |  |
| 0.1 µg/mL | CNC1(c2c(F)cc3c(=O)c(C(=O)O)cn4c3c2OC[C@@H]4C)CC1.Cl [Test Compound 11, (S)-10-[1-(N-methylamino)cyclopropyl]-9-fluoro-3-methyl-7-oxo-2,3-dihydro-7H-pyrido[1,2,3-de][1,4]-benzoxazine-6-carboxylic acid hydrochloride] | 0.2 µg/mL | 0.1 µg/mL | 0.1 µg/mL | 0.1 µg/mL | ≤ 0.05 µg/mL | ≤ 0.05 µg/mL | ≤ 0.05 µg/mL |  |  |  |  |
|  | CC1COc2c(N3CCN(C)CC3)c(F)cc3c(=O)c(C(=O)O)cn1c23 (racemic) [Control compd., (±)9-Fluoro-2,3-dihydro-3-methyl-10-(4-methyl-1-piperazinyl)-7-oxo-7H-pyrido[1,2,3-de][1,4]benzoxazine-6carboxylic acid, reference compound] | 3.13 µg/mL (≈ 8.66 µM) | 0.2 µg/mL (≈ 0.553 µM) |  | 0.39 µg/mL (≈ 1.08 µM) | 0.1 µg/mL (≈ 0.277 µM) | ≤ 0.05 µg/mL | ≤ 0.05 µg/mL | 0.39 µg/mL (≈ 1.08 µM) | 0.39 µg/mL (≈ 1.08 µM) |  |  |
| 0.2 µg/mL | CC1COc2c(C3(N)CC3)c(F)cc3c(=O)c(C(=O)O)cn1c23.Cl (stereo not shown) [Test Compound 1, 10-(1-Aminocyclopropyl)-9-fluoro-3-methyl-7-oxo-2,3-dihydro-7H-pyrido[1,2,3-de][1,4] benzoxazine-6carboxylic acid hydrochloride] | 0.2 µg/mL | 0.1 µg/mL | ≤ 0.05 µg/mL | 0.1 µg/mL | ≤ 0.05 µg/mL | ≤ 0.05 µg/mL | ≤ 0.05 µg/mL |  |  |  |  |
| 0.2 µg/mL | CC[C@H]1COc2c(C3(N)CC3)c(F)cc3c(=O)c(C(=O)O)cn1c23.Cl [Test Compound 7, (S)-10-(1-aminocyclopropyl)-3-ethyl-9-fluoro-7-oxo-2,3-dihydro-7H-pyrido[1,2,3-de][1,4]benzoxazine-6carboxylic acid hydrochloride] | 0.2 µg/mL | 0.1 µg/mL | 0.1 µg/mL | 0.2 µg/mL | ≤ 0.05 µg/mL | ≤ 0.05 µg/mL | ≤ 0.05 µg/mL |  |  |  |  |
|  | NC1(c2c(F)cc3c(=O)c(C(=O)O)cn4c3c2OCC42CC2)CC1 [Test Compound 9, 10'-(1-Aminocyclopropyl)-9'-fluoro-7+-oxospiro{cyclopropane-1,3'(2'H)-[7H]-pyrido[1,2,3-de][1,4]benzoxazine}-6'-carboxylic acid hydrochloride] |  | 0.2 µg/mL | 0.2 µg/mL | 0.39 µg/mL | 0.1 µg/mL | ≤ 0.05 µg/mL | 0.1 µg/mL | 0.39 µg/mL |  |  | 0.39 µg/mL |

| SMILES | MIC (K. pneumoniae Y-4*; [3]) | MIC (P. aeruginosa GN-918*; [2]) | MIC (S. marcescens W-134) | MIC (C. freundii N-7; [4]) | MIC (P. mirabilis T-111) | MIC (M. morganii T-216) | MIC (E. coli TK-111) | MIC (E. coli NIHJ) | MIC (K. pneumoniae Y-4*; 20 h) | MIC (C. freundii N-7; N7, 20 h) | LD50 [1] | MIC (P. aeruginosa GN-918*; GN918, 20 h) |
| --- | --- | --- | --- | --- | --- | --- | --- | --- | --- | --- | --- | --- |
| C[C@H]1COc2c(C3(N)CC3)c(F)cc3c(=O)c(C(=O)O)cn1c23.Cl [Test Compound 5, (S)-10-(1-aminocyclopropyl)-9-fluoro-3-methyl-7-oxo-2,3-dihydro-7H-pyrido[1,2,3-de][1,4]benzoxazine-6-carboxylic acid hydrochloride] | ≤ 0.05 µg/mL | 0.1 µg/mL | ≤ 0.05 µg/mL | ≤ 0.05 µg/mL | ≤ 0.05 µg/mL | ≤ 0.05 µg/mL | ≤ 0.05 µg/mL | ≤ 0.05 µg/mL |  |  | > 1000 mg/kg |  |
| Br.C=C1COc2c(C3(N)CC3)c(F)cc3c(=O)c(C(=O)O)cn1c23 [Test Compound 8, 10-(1-Aminocyclopropyl)-9-fluoro-3-methylene-7-oxo-2,3-dihydro-7H-pyrido[1,2,3-de][1,4]benzoxazine-6-carboxylic acid hydrobromide] | 0.2 µg/mL |  | 0.2 µg/mL | 0.1 µg/mL | 0.39 µg/mL | 0.1 µg/mL | ≤ 0.05 µg/mL | 0.1 µg/mL |  |  |  | 0.39 µg/mL |
